Data from patent US20260022143A1, “Cyclic Peptide Inhibitors of IL-23” (JANSSEN PHARMACEUTICA NV, priority 2022, published 2026).
pIC50: −log10 of the molar value. Structures can show the parent of a compound that is named as a salt. Starred links: 1 amine or outer side, 2 acyl side, 3 side chain; linkers in the order of their positions; H or OH if unused. Positions of bridges follow the written chain, without caps; N, C: chain ends. Non-standard residues stand in square brackets, D forms with d. Residues, ends and D or L forms follow the SMILES beside them. *: point of attachment. Me3N+(CH2)2O(CH2)2O(CH2)2CO = C[N+](C)(C)CCOCCOCCC(=O)*; X21 = O=C([C@H](Cc1cncc(C(F)(F)F)c1)N[*:1])[*:2]; Trp(7-Me) = Cc1cccc2c(C[C@H](N)C(=O)O)c[nH]c12; Hexanoyl(6-NMe3+) = C[N+](C)(C)CCCCCC(=O)*; dLys(Me3) = C[N+](C)(C)CCCC[C@@H](N)C(=O)O; Dab(NMeAc) = CC(=O)N(C)CC[C@H](N)C(=O)O; 2Nal = N[C@@H](Cc1ccc2ccccc2c1)C(=O)O; AEF = NCCOc1ccc(C[C@H](N)C(=O)O)cc1; 3Pal = N[C@@H](Cc1cccnc1)C(=O)O; Lys(Me) = CNCCCC[C@H](N)C(=O)O; X7 = COCCOCCOCCOCCOCCOCCC(=O)*; Pen = CC(C)(S)[C@H](N)C(=O)O; Thp = NC1(C(=O)O)CCOCC1; Me2NCH2CH2 = CN(C)CC*; Tfa = O=C(C(F)(F)F)*; NHtBu = CC(C)(C)N*; Sar = CNCC(=O)O

Experiments:
[1] = molecular target: T1, IL-23R (Homo sapiens, UniProt Q5VWK5); test: IL23R Reporter Assay; format: cell-based; conditions: HEK293 cells containing IL-23R, IL-12RP1 and STAT-inducible firefly luciferase reporter; 10 ng/mL IL-23 (EC90); 5 h at 37° C.; read-out: IL23R Reporter Assay
T1 construct: host or cells: HEK293
T1 sequence (Q5VWK5 24-629): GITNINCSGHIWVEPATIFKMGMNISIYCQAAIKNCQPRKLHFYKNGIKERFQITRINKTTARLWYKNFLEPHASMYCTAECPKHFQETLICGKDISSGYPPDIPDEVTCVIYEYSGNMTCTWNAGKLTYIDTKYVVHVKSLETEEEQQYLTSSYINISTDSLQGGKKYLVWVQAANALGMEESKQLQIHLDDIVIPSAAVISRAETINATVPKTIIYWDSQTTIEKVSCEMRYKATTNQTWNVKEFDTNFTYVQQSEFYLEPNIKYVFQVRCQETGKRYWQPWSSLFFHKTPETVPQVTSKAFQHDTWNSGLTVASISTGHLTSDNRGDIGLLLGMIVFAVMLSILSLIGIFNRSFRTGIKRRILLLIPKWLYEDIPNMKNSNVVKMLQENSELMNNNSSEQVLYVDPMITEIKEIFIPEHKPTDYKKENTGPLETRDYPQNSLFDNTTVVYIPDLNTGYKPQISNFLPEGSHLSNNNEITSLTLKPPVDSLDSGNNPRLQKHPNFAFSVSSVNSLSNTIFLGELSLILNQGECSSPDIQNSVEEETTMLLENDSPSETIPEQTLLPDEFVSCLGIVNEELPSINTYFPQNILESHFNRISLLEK

[2] = Exposed Polar Surface Area (EPSA); format: physicochemical; conditions: SFC on Chirex 3014 column; sample 1 mM DMSO stock; read-out: EPSA
Summary of the method: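 EPSA, in Å^2, is read from SFC retention time through a linear relationship established with eight calibration standards. Separation uses a Chirex 3014 stationary phase, 35 °C, 14 MPa back pressure, and a 5–60% methanol/ammonium formate modifier gradient in CO2.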

Row | SMILES | pIC50 [1] | EPSA [2] [A^2]
1 | CNC(=O)C[C@@H]1NC(=O)[C@@H](NC(C)=O)C(C)(C)SSC(C)(C)[C@@H](C(=O)N[C@@H](Cc2ccc(OCCNC(C)=O)cc2)C(=O)N[C@@H](Cc2ccc3ccccc3c2)C(=O)NC2(C(=O)N[C@@H](CCCCN(C)C(C)=O)C(=O)N[C@@H](CC(N)=O)C(=O)N[C@@H](Cc3cccnc3)C(=O)N(C)CC(N)=O)CCOCC2)NC(=O)[C@H](CCCCN(C)C(C)=O)NC(=O)[C@H](Cc2c[nH]c3c(C)cccc23)NC(=O)[C@H]([C@@H](C)O)NC1=O [compound 58] (Ac-[Pen]D(NHMe)T[Trp(7-Me)][Lys(Me)](Ac)[Pen][AEF](Ac)[2Nal][Thp][Lys(Me)](Ac)N[3Pal][Sar]-NH2; disulfide 1-6) | 8.37 | 154
2 | COCCOCCOCCOCCOCCOCCC(=O)N[C@@H]1C(=O)N[C@@H](CC(N)=O)C(=O)N[C@@H]([C@@H](C)O)C(=O)N[C@@H](Cc2c[nH]c3c(C)cccc23)C(=O)N[C@@H](CCCCNC(C)=O)C(=O)N[C@H](C(=O)N[C@@H](Cc2ccc(OCCN)cc2)C(=O)N[C@@H](Cc2ccc3ccccc3c2)C(=O)NC2(C(=O)N[C@@H](CCCCNC(C)=O)C(=O)N[C@@H](CC(N)=O)C(=O)N[C@@H](Cc3cccnc3)C(=O)N(C)CC(N)=O)CCOCC2)C(C)(C)SSC1(C)C [compound 64] (X7-[Pen]NT[Trp(7-Me)]K(Ac)[Pen][AEF][2Nal][Thp]K(Ac)N[3Pal][Sar]-NH2; disulfide 1-6 (inferred)) | 8.31 | 160
3 | CC(=O)N(C)CC[C@@H]1NC(=O)[C@H](Cc2c[nH]c3c(C)cccc23)NC(=O)[C@H]([C@@H](C)O)NC(=O)[C@H](CC(N)=O)NC(=O)[C@@H](NC(=O)C(F)(F)F)C(C)(C)SSC(C)(C)[C@@H](C(=O)N[C@@H](Cc2ccc(OCCN(C)C)cc2)C(=O)N[C@@H](Cc2ccc3ccccc3c2)C(=O)NC2(C(=O)N[C@@H](CCC(=O)N(C)C)C(=O)N[C@@H](CC(N)=O)C(=O)N[C@@H](Cc3cccnc3)C(=O)N(C)CC(N)=O)CCOCC2)NC1=O [compound 71] (Tfa-[Pen]NT[Trp(7-Me)][Dab(NMeAc)][Pen]Y(Me2NCH2CH2)[2Nal][Thp]E(NMe2)N[3Pal][Sar]-NH2; disulfide 1-6 (inferred)) | 8.68 | 146
4 | CC(=O)NCCCC[C@@H]1NC(=O)[C@H](Cc2c[nH]c3c(C)cccc23)NC(=O)[C@H]([C@@H](C)O)NC(=O)[C@H](CC(N)=O)NC(=O)[C@@H](NC(=O)[C@@H](CCCCNC(=O)CCCCC[N+](C)(C)C)NC(C)=O)C(C)(C)SSC(C)(C)[C@@H](C(=O)N[C@@H](Cc2ccc(OCCN)cc2)C(=O)N[C@@H](Cc2ccc3ccccc3c2)C(=O)NC2(C(=O)N[C@@H](CCCCNC(C)=O)C(=O)N[C@@H](CC(N)=O)C(=O)N[C@@H](Cc3cccnc3)C(=O)N(C)CC(N)=O)CCOCC2)NC1=O [compound 87] (Ac-[dK](Hexanoyl(6-NMe3+))[Pen]NT[Trp(7-Me)]K(Ac)[Pen][AEF][2Nal][Thp]K(Ac)N[3Pal][Sar]-NH2; disulfide 2-7 (inferred)) | 8.38 | 159
5 | CC(=O)NCCCC[C@@H]1NC(=O)[C@H](Cc2c[nH]c3c(C)cccc23)NC(=O)[C@H]([C@@H](C)O)NC(=O)[C@H](CC(N)=O)NC(=O)[C@@H](NC(=O)CCOCCOCC[N+](C)(C)C)C(C)(C)SSC(C)(C)[C@@H](C(=O)N[C@@H](Cc2ccc(OCCN)cc2)C(=O)N[C@@H](Cc2ccc3ccccc3c2)C(=O)NC2(C(=O)N[C@@H](CCCCNC(C)=O)C(=O)N[C@@H](CC(N)=O)C(=O)N[C@@H](Cc3cccnc3)C(=O)N(C)CC(N)=O)CCOCC2)NC1=O [compound 90, cPEG3aCO-Pen(3)-N-T-7MeW-K(Ac)-Pen(3)-AEF-2Nal-THP-K(Ac)-N-3Pya-Sar-CONH2] ({Me3N+(CH2)2O(CH2)2O(CH2)2CO}-[Pen]NT[Trp(7-Me)]K(Ac)[Pen][AEF][2Nal][Thp]K(Ac)N[3Pal][Sar]-NH2; disulfide 1-6) | 8.43 | 164

Next, values leading:

Row | pIC50 [1] | EPSA [2] [A^2] | SMILES
6 | 8.34 | 158 | CC(=O)NCCCC[C@@H]1NC(=O)[C@H](Cc2c[nH]c3c(C)cccc23)NC(=O)[C@H]([C@@H](C)O)NC(=O)[C@H](CC(=O)N(C)C)NC(=O)[C@@H](NC(=O)C(F)(F)F)C(C)(C)SSC(C)(C)[C@@H](C(=O)N[C@@H](Cc2ccc(OCCN)cc2)C(=O)N[C@@H](Cc2ccc3ccccc3c2)C(=O)NC2(C(=O)N[C@@H](CCCCNC(C)=O)C(=O)N[C@@H](CC(N)=O)C(=O)N[C@@H](Cc3cccnc3)C(=O)N(C)CC(N)=O)CCOCC2)NC1=O [compound 52, CF3CO-Pen(3)-N(N(Me)2)-T-7MeW-K(Ac)-Pen(3)-AEF-2Nal-THP-K(Ac)-N-3Pya-Sar-CONH2] (Tfa-[Pen]D(NMe2)T[Trp(7-Me)]K(Ac)[Pen][AEF][2Nal][Thp]K(Ac)N[3Pal][Sar]-NH2; disulfide 1-6 (inferred))
7 | 8.24 | 158 | CC(=O)NCCCC[C@@H]1NC(=O)[C@H](Cc2c[nH]c3c(C)cccc23)NC(=O)[C@H]([C@@H](C)O)NC(=O)[C@H](CC(N)=O)NC(=O)[C@@H](NC(=O)C(F)(F)F)C(C)(C)SSC(C)(C)[C@@H](C(=O)N[C@@H](Cc2ccc(OCCN)cc2)C(=O)N[C@@H](Cc2ccc3ccccc3c2)C(=O)NC2(C(=O)N[C@@H](CCCCNC(C)=O)C(=O)N[C@@H](CC(N)=O)C(=O)N[C@@H](Cc3cncc(C(F)(F)F)c3)C(=O)N(C)CC(N)=O)CCOCC2)NC1=O [compound 56] (Tfa-[Pen]NT[Trp(7-Me)]K(Ac)[Pen][AEF][2Nal][Thp]K(Ac)N[X21][Sar]-NH2; disulfide 1-6 (inferred))
8 | 8.46 | 157 | CC(=O)NCCCC[C@H](NC(=O)C1(NC(=O)[C@H](Cc2ccc3ccccc3c2)NC(=O)[C@H](Cc2ccc(OCCN)cc2)NC(=O)[C@H]2NC(=O)[C@H](CCC(=O)NC(C)(C)C)NC(=O)[C@H](Cc3c[nH]c4c(C)cccc34)NC(=O)[C@H]([C@@H](C)O)NC(=O)[C@H](CC(N)=O)NC(=O)[C@@H](NC(=O)C(F)(F)F)C(C)(C)SSC2(C)C)CCOCC1)C(=O)N[C@@H](CC(N)=O)C(=O)N[C@@H](Cc1cccnc1)C(=O)N(C)CC(N)=O [compound 60] (Tfa-[Pen]NT[Trp(7-Me)]E(NHtBu)[Pen][AEF][2Nal][Thp]K(Ac)N[3Pal][Sar]-NH2; disulfide 1-6 (inferred))
9 | 7.60 | 157 | CC(=O)NCCCC[C@@H]1NC(=O)[C@H](Cc2c[nH]c3c(C)cccc23)NC(=O)[C@H]([C@@H](C)O)NC(=O)[C@H](CC(N)=O)NC(=O)[C@@H](NC(=O)C(F)(F)F)C(C)(C)SSC(C)(C)[C@@H](C(=O)N[C@@H](Cc2ccc(OCCN)cc2)C(=O)N[C@@H](Cc2ccc3ccccc3c2)C(=O)NC2(C(=O)N[C@@H](CCCCNC(C)=O)C(=O)N[C@@H](CC(N)=O)C(=O)N[C@@H](Cc3cccnc3)C(=O)N(C)C)CCOCC2)NC1=O [compound 63] (Tfa-[Pen]NT[Trp(7-Me)]K(Ac)[Pen][AEF][2Nal][Thp]K(Ac)N[3Pal]-NMe2; disulfide 1-6 (inferred))
10 | 8.37 | 157 | CC(=O)NCCCC[C@@H]1NC(=O)[C@H](Cc2c[nH]c3c(C)cccc23)NC(=O)[C@H]([C@@H](C)O)NC(=O)[C@H](CC(N)=O)NC(=O)[C@@H](NC(=O)[C@@H](CCCC[N+](C)(C)C)NC(=O)C(F)(F)F)C(C)(C)SSC(C)(C)[C@@H](C(=O)N[C@@H](Cc2ccc(OCCN)cc2)C(=O)N[C@@H](Cc2ccc3ccccc3c2)C(=O)NC2(C(=O)N[C@@H](CCCCNC(C)=O)C(=O)N[C@@H](CC(N)=O)C(=O)N[C@@H](Cc3cccnc3)C(=O)N(C)CC(N)=O)CCOCC2)NC1=O [compound 80] (Tfa-[dLys(Me3)][Pen]NT[Trp(7-Me)]K(Ac)[Pen][AEF][2Nal][Thp]K(Ac)N[3Pal][Sar]-NH2; disulfide 2-7 (inferred))
